Patent publication US11708344B2, “Flavone derivatives for the treatment and prophylaxis of hepatitis B virus disease” (Hoffmann-La Roche Inc., priority 2018, dated 2023)
Like-named read-outs stand apart in the source and are kept apart here.

Experiments:
[1] = test system: HBeAg (surrogate marker for cccDNA) in HepDES19 cells; test: Engineered HepDES19 primary screen assay (HBeAg ELISA); format: cell-based, HBV
Procedure, shortened: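 IC50 values come from 4-parameter logistic fits of HBeAg ELISA signal, the cccDNA surrogate, with CCK-8 run in parallel for viability. Compounds at half-log dilutions with 1% DMSO were applied for 5 days at 37 °C to HepDES19 cells previously cultured 8 days without Tet.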

[2] = test system: HBsAg in HBV-infected PHH; test: Cryopreserved primary human hepatocytes (PHH) HBV infection assay, extracellular HBsAg (CLIA); format: cell-based
Procedure: This assay is used to confirm the anti-HBV effect of the compounds in HBV PHH infection assay. Cryopreserved PHH (BioreclamationIVT, Lot YJM) was thawed at 37° C. and gently transferred into pre-warmed InVitroGRO HT medium (BioreclamationIVT, Cat. S03317). The mixture was centrifuged at 70 relative centrifugal force (RCF) for 3 minutes at RT, and the supernatant was discarded. Pre-warmed InVitroGRO CP medium (BioreclamationIVT, Cat #S03316) was added to the cell pellet to gently re-suspend cells. The cells were seeded at the density of 5.8×10^4 cells per well to collagen I coated 96-well plate (Gibco, Cat. A1142803) with the InVitroGRO CP medium. All plates were incubated at 37° C. with 5% CO2 and 85% humidity.
At 20 hours after plating, the medium was changed to PHH culture medium (Dulbecco's Modified Eagle Medium (DMEM)/F12 (1:1) (Gibco, Cat. 11320-033), 10% fetal bovine semm (Gibco Cat. 10099141), 100 U/mL penicillin, 100 μg/mL streptomycin (Gibco, Cat. 151401-122), […] (Invitrogen Cat. PHG0311L), 20 ng/mL dexamethasone (Sigma, Cat. D4902) and 250 ng/mL human recombinant insulin (Gibco, Cat. 12585-014)). And the cells were incubated at 37° C. with 5% CO2 and 85% humidity for 4 hours. The medium was then changed to pre-warmed PHH culture medium containing 4% polyethylene glycol (PEG) MW8000 (Sigma, Cat. P1458-50 ML) and 1% DMSO (Sigma, Cat. D2650). 5.8×10^6 genomic equivalents of HBV were added into the medium.
At 24 hours post-infection, the cells were gently washed with PBS and refreshed with PHH culture medium supplemented with 1% DMSO, and 0.25 mg/mL Matrix gel (Corning, Cat. 356237) at 200 μL per well. All plates were immediately placed in at 37° C. CO2 incubator.
24 hours later, serial dilutions of compounds made with DMSO were further diluted with the same culture medium (PHH culture medium supplemented with 1% DMSO and 0.25 mg/mL Matrix gel as described above) before they were added to the cells to reach desired final compound concentrations and 1% DMSO concentration. The medium containing the compounds were refreshed every three days.
At 9 days post-compound treatment, extracellular HBsAg level were measured with Chemiluminescence Immuno Assay (CLIA) kit (Autobio, HBsAg Quantitative CLIA). Extracellular HBV DNA was extracted by MagNA Pure 96 system (Roche) and then determined by quantitative PCR with the following primers and probe: […]
HBsAg IC50 and HBV DNA IC50 values were derived from the dose-response curve using 4 parameter logistic curve fit method. The compounds of formula (I) have HBsAg IC50<20 μM, particularly <1 μM; and HBV DNA IC50<50 μM.

[3] = Hepatitis B virus, HepDES19, 120 h, read-out: IC50 (HBeAg level, HepDES19 primary screen assay), HepDES19 cells, 5 days compound incubation, HBeAg ELISA
[4] = Hepatitis B virus, Hepatocyte, 216 h, read-out: HBsAg IC50, Cryopreserved PHH infected with HBV, 9 days post-compound treatment, extracellular HBsAg
[5] = read-out: IC50 (HBeAg level, HepDES19 primary screen assay), HepDES19 cells, 5 days compound incubation, HBeAg ELISA

With `O=C(O)C1CC(Oc2cc(Br)ccc2-c2cc(=O)c3cccc(Cl)c3o2)C1` (stereo not shown) [Example B001, 3-[5-bromo-2-(8-chloro-4-oxo-chromen-2-yl)phenoxy]cyclobutanecarboxylic acid] as the compound, how does the IC50 [1, 3] read?
Its IC50 is 0.213 µM.

What about the IC50 [2, 4] of the same compound?
Its IC50 is 1.03 µM.

With `O=C(O)CCOc1cc(Br)cc(F)c1-c1cc(=O)c2cccc(Cl)c2o1` [Example A020, 3-[5-bromo-2-(8-chloro-4-oxo-chromen-2-yl)-3-fluoro-phenoxy]propanoic acid] as the compound, how does the IC50 [1, 3] read?
The IC50 was 0.78 µM.

And the IC50 [2, 4]?
The IC50 was 7.5 µM.

Which IC50 [1, 3] does the source give for `COC(=O)CCOc1cc(C(F)(F)F)ccc1-c1cc(=O)c2cccc(Cl)c2o1` [Example A002, methyl 3-[2-(8-chloro-4-oxo-chromen-2-yl)-5-(trifluoromethyl)phenoxy]propanoate] here?
Its IC50 is 0.795 µM.

And the IC50 [2, 4]?
The IC50 was 1.82 µM.

How did the IC50 [1, 3] turn out when `Cc1cc(-c2cc(=O)c3cccc(Cl)c3o2)c(OCCC(=O)O)cc1Br` [Example A006, 3-[5-bromo-2-(8-chloro-4-oxo-chromen-2-yl)-4-methyl-phenoxy]propanoic acid] was run?
The IC50 was 1.23 µM.

What about the IC50 [2, 4] of the same compound?
The IC50 was 1.08 µM.

How did the IC50 [1, 3] turn out when `COc1cc(OCCC(=O)O)c(-c2cc(=O)c3cccc(Cl)c3o2)cc1C` [Example A012, 3-[2-(8-chloro-4-oxo-chromen-2-yl)-5-methoxy-4-methyl-phenoxy]propanoic acid] was run?
Its IC50 is 0.65 µM.

What about the IC50 [2, 4] of the same compound?
Its IC50 is 2.11 µM.

How did the IC50 [1, 3] turn out when `O=c1cc(-c2ccc(Br)cc2OCCO[C@H]2C[C@@H](C(=O)O)C2)oc2c(Cl)ccc(C(F)(F)F)c12` [Example C049-A, Cis-3-[2-[5-bromo-2-[8-chloro-4-oxo-5-(trifluoromethyl)chromen-2-yl]phenoxy]ethoxy]cyclobutanecarboxylic acid] was run?
Its IC50 is 0.0775 µM.

What about the IC50 [2, 4] of the same compound?
Its IC50 is 7.31 µM.

For `O=C(O)COCCCOc1cc(Br)ccc1-c1cc(=O)c2cccc(Cl)c2o1` [Example C010, 2-[3-[5-bromo-2-(8-chloro-4-oxo-chromen-2-yl)phenoxy]propoxy]acetic acid], which IC50 [1, 3] is on record?
The IC50 was 0.696 µM.

What about the IC50 [2, 4] of the same compound?
The IC50 was 9.38 µM.

`O=C(COc1cc(C(F)(F)F)ccc1-c1cc(=O)c2cccc(Cl)c2o1)N1CCOCC1` [Example A092, 8-chloro-2-[2-(2-morpholino-2-oxo-ethoxy)-4-(trifluoromethyl)phenyl]chromen-4-one] was tested. Which IC50 [1, 3] did it give?
The IC50 was 1.13 µM.

What about the IC50 [2, 4] of the same compound?
The IC50 was 2.8 µM.

`Cc1cc(-c2cc(=O)c3cccc(Cl)c3o2)c(O[C@H]2C[C@H](C(=O)O)C2)cc1Br` [Example B013-B, Trans-3-[5-bromo-2-(8-chloro-4-oxo-chromen-2-yl)-4-methyl-phenoxy]cyclobutanecarboxylic acid] was tested. Which IC50 [1, 3] did it give?
The IC50 was 2.45 µM.

And the IC50 [2, 4]?
Its IC50 is 1.02 µM.

What does the source list for `N#CC1CC(Oc2cc(C(F)(F)F)ccc2-c2cc(=O)c3cccc(Cl)c3o2)C1` (stereo not shown) [Example B070, 3-[2-(8-chloro-4-oxo-chromen-2-yl)-5-(trifluoromethyl)phenoxy]cyclobutanecarbonitrile]?
IC50 [1, 3]: 0.435 µM; IC50 [2, 4]: 0.788 µM

Which results are given for `Cc1cc(-c2cc(=O)c3cccc(Cl)c3o2)c(OCCO[C@H]2C[C@@H](C(=O)O)C2)cc1Br` [Example C031-A, Cis-3-[2-[5-bromo-2-(8-chloro-4-oxo-chromen-2-yl)-4-methyl-phenoxy]ethoxy]cyclobutanecarboxylic acid]?
IC50 [1, 3]: 6.19 µM; IC50 [2, 4]: 1.16 µM

How did the IC50 [1, 3] turn out when `Cc1ccc(-c2cc(=O)c3cccc(Cl)c3o2)c(OCCC(=O)O)c1` [Example A013, 3-[2-(8-chloro-4-oxo-chromen-2-yl)-5-methyl-phenoxy]propanoic] was run?
The IC50 was 0.656 µM.

And the IC50 [2, 4]?
Its IC50 is 1.91 µM.

Which results are given for `O=c1cc(-c2ccc(Br)cc2OC[C@H]2C[C@H](C(=O)O)C2)oc2c(Cl)cccc12` [Example B025-B, Trans-3-[[5-bromo-2-(8-chloro-4-oxo-chromen-2-yl)phenoxy]methyl]cyclobutanecarboxylic acid]?
IC50 [1, 5]: 2.27 µM; IC50 [2, 4]: 3.06 µM

For `CCc1ccc(-c2cc(=O)c3cccc(Cl)c3o2)c(O[C@H]2C[C@@H](C(=O)O)C2)c1` [Example B019-A, Cis-3-[2-(8-chloro-4-oxo-chromen-2-yl)-5-ethyl-phenoxy]cyclobutanecarboxylic acid], which IC50 [1, 3] is on record?
Its IC50 is 1.03 µM.

What about the IC50 [2, 4] of the same compound?
Its IC50 is 3.96 µM.

For `O=c1cc(-c2ccc(N3CCOCC3)cc2OCCO[C@H]2C[C@H](C(=O)O)C2)oc2c(Cl)cccc12` [Example C067-B, trans-3-[2-[2-(8-chloro-4-oxo-chromen-2-yl)-5-morpholino-phenoxy]ethoxy]cyclobutanecarboxylic acid], which IC50 [1, 3] is on record?
The IC50 was 8.36 µM.

And the IC50 [2, 4]?
Its IC50 is 4.74 µM.

With `NC(=O)COCC(O)COc1cc(Br)ccc1-c1cc(=O)c2cccc(Cl)c2o1` (stereo not shown) [Example C114, 2-[3-[5-bromo-2-(8-chloro-4-oxo-chromen-2-yl)phenoxy]-2-hydroxy-propoxy]acetamide] as the compound, how does the IC50 [1, 3] read?
The IC50 was 1.24 µM.

And the IC50 [2, 4]?
The IC50 was 9.19 µM.

Which IC50 [1, 3] does the source give for `Cc1cc(-c2cc(=O)c3cccc(Cl)c3o2)c(O[C@H]2C[C@@H](C(=O)O)C2)cc1Br` [Example B013-A, Cis-3-[5-bromo-2-(8-chloro-4-oxo-chromen-2-yl)-4-methyl-phenoxy]cyclobutanecarboxylic acid] here?
Its IC50 is 0.919 µM.

What about the IC50 [2, 4] of the same compound?
Its IC50 is 7.3 µM.

How did the IC50 [1, 3] turn out when `Cc1ccc(-c2cc(=O)c3cccc(Cl)c3o2)c(O[C@H]2C[C@H](C(=O)O)C2)c1` [Example B018-B, Trans-3-[2-(8-chloro-4-oxo-chromen-2-yl)-5-methyl-phenoxy]cyclobutanecarboxylic acid] was run?
Its IC50 is 0.548 µM.

And the IC50 [2, 4]?
The IC50 was 4.7 µM.

What does the source list for `COc1cc(O[C@H]2C[C@H](C(=O)O)C2)c(-c2cc(=O)c3cccc(Cl)c3o2)cc1C` [Example B017, 3-[2-(8-chloro-4-oxo-chromen-2-yl)-5-methoxy-4-methyl-phenoxy]cyclobutanecarboxylic acid]?
IC50 [1, 3]: 4.85 µM; IC50 [2, 4]: 4.87 µM

What does the source list for `O=C(O)CCOc1cc2c(cc1-c1cc(=O)c3cccc(Cl)c3o1)OCO2` [Example A011, 3-[[6-(8-chloro-4-oxo-chromen-2-yl)-1,3-benzodioxol-5-yl]oxy]propanoic acid]?
IC50 [1, 3]: 0.415 µM; IC50 [2, 4]: 0.931 µM

`Cc1cc(-c2cc(=O)c3cccc(Cl)c3o2)c(OC2CC(C(=O)O)C2)cc1Cl` (stereo in doubt) [Example B012-B, Trans-3-[5-chloro-2-(8-chloro-4-oxo-chromen-2-yl)-4-methyl-phenoxy]cyclobutanecarboxylic acid] was tested. Which IC50 [1, 5] did it give?
Its IC50 is 2.72 µM.

What about the IC50 ([2]; read-out: HBsAg IC50, Cryopreserved PHH infected with HBV, 9 days post-compound treatment, extracellular HBsAg) of the same compound?
Its IC50 is 2.56 µM.

Which results are given for `O=C(O)CCCOc1cc(Br)ccc1-c1cc(=O)c2cccc(Cl)c2o1` [Example A055, 4-[5-bromo-2-(8-chloro-4-oxo-chromen-2-yl)phenoxy]butanoic acid]?
IC50 [1, 3]: 0.0955 µM; IC50 [2, 4]: 2.38 µM

Which IC50 [1, 3] does the source give for `Cc1cc(-c2cc(=O)c3cccc(Cl)c3o2)c(OCCO[C@H]2C[C@@H](C(=O)O)C2)cc1Cl` [Example C055-A, Cis-3-[2-[5-chloro-2-(8-chloro-4-oxo-chromen-2-yl)-4-methyl-phenoxy]ethoxy]cyclobutanecarboxylic acid] here?
Its IC50 is 4.03 µM.

What about the IC50 [2, 4] of the same compound?
Its IC50 is 9.27 µM.

With `O=C(O)CCOc1cc(OC(F)(F)F)c(Br)cc1-c1cc(=O)c2cccc(Cl)c2o1` [Example A016, 3-[4-bromo-2-(8-chloro-4-oxo-chromen-2-yl)-5-(trifluoromethoxy)phenoxy]propanoic acid] as the compound, how does the IC50 [1, 3] read?
Its IC50 is 1.03 µM.

And the IC50 [2, 4]?
Its IC50 is 0.828 µM.

What does the source list for `O=C(O)C1CC(OCCOc2cc(N3CCOC3=O)ccc2-c2cc(=O)c3cccc(Cl)c3o2)C1` (stereo not shown) [Example C062, 3-[2-[2-(8-chloro-4-oxo-chromen-2-yl)-5-(2-oxooxazolidin-3-yl)phenoxy]ethoxy]cyclobutanecarboxylic acid]?
IC50 [1, 3]: 1.51 µM; IC50 [2, 4]: 6.79 µM

With `Cc1cc(-c2cc(=O)c3cccc(Cl)c3o2)c(OCC(=O)N2C[C@@H](O)[C@@H](O)C2)cc1Br` [Example A090, 2-[4-bromo-5-methyl-2-[2-oxo-2-[rac-(3S,4R)-3,4-dihydroxypyrrolidin-1-yl]ethoxy]phenyl]-8-chloro-chromen-4-one] as the compound, how does the IC50 [1, 3] read?
Its IC50 is 4.79 µM.

What about the IC50 [2, 4] of the same compound?
Its IC50 is 9.35 µM.
